“Also recorded” adds a separate entry of the source.
Key:
R1-RXFP1 = test: Indirect CRE-β-gal reporter cAMP assay, rabbit R1-RXFP1; format: cell-based, European rabbit (Oryctolagus cuniculus); conditions: 6 h at 37°C, % of 5 μM Forskolin response
Procedure: For the indirect cAMP assay, changes in cAMP signaling were measured by co-transfection of receptors with a CRE-β-galactosidase (CRE-β-gal) reporter construct ([11]). Cells were stimulated for 6 h at 37°C with RLN peptides or ML290 at various concentrations. A non-linear regression sigmoidal dose–response curve was then produced using GraphPad Prism. All experiments were conducted at least three times with three to four replicates each time.

R1H-RXFP1 and R2H-RXFP1 = test: Direct HTRF cAMP assay, rabbit/human chimeras R1H- and R2H-RXFP1; format: cell-based; design: key to Activation of RXFP1 receptors: *: Weak; **: intermediate; ***: strong activation of the receptor
Procedure: (§1) The human, mouse, macaque, and pig RXFP1 cDNA constructs in baculovirus BacMam mammalian expression vector (Invitrogen, Carlsbad, CA, USA) were synthesized at the Eukaryotic Expression Group-Protein Expression laboratory (NCI, Frederick, MD, USA). The PCR primers for RT-PCR were designed to cover the full-length sequence of the open reading frame (ORF). PCR amplifications were performed with PfuUltra High-Fidelity DNA polymerase (Agilent Technologies, Santa Clara, CA, USA). Guinea pig RXFP1 (G-RXFP1) was amplified from guinea pig ovarian cDNA (Zyagen, San Diego, CA, USA). Rabbit RXFP1 (R1-RXFP1 and R2-RXFP1) cDNAs were amplified from rabbit uterus cDNA (Zyagen). All cloning was performed using the In-Fusion® HD Cloning Kit (Clontech Laboratories, Mountain View, CA, USA). Rabbit and guinea pig RXFP1s were cloned into pCR3.1 mammalian expression vector (Invitrogen). […]
(§2) Direct measurement of cAMP production was performed using the HTRF cAMP HiRange kit (CisBio, Bedford, MA, USA). […] The plates were incubated for 60 min at room temperature, and the signal was read on a FLUOstar Omega (BMG Labtech, Cary, NC, USA) plate reader. cAMP levels were calculated according to the manufacturer’s instructions against a standard curve. […]

human RXFP1 = test: CRE-Luc BacMam luciferase assay, human RXFP1; format: cell-based; design: key to Activation of RXFP1 receptors: *: Weak; **: intermediate; ***: strong activation of the receptor
Procedure: (§3) GloResponse™ CRE-luc2P HEK293T cells stably transfected with cAMP response element-driven luciferase (CRE-Luc) reporter (Promega, Madison, WI, USA) were transduced with human, macaque, pig, and mouse RXFP1 expression BacMam vectors according to the manufacturer’s protocol (Invitrogen) and incubated at room temperature for 2 h in the dark with occasional mixing. The volume of the cell culture was adjusted to 1000 cells/μl with DMEM + 10% FBS. Cells (3 μl, 3000 cells) were plated on 1536-well white solid-bottom TC plates and incubated overnight at 37C°, 5% CO2. Four hundred […] Ro 20-1724 (Sigma-Aldrich, St. Louis, MO, USA) in PBS (1 μl) was added in each well. The cells were treated with serial dilutions of either Forskolin (Sigma-Aldrich), ML290 ([5]) or porcine RLN at final concentrations’ range (57 μM–3.5 pM) for Forskolin and ML290, and (8.7 μM–1.8 pM, or 57 ng/μl–0.012 pg/μl] for RLN. After 2 h stimulation at 37°C, 4 μl of detection reagent from Amplite™ Luciferase reporter gene assay kit (AAT Bioquest, Sunnyvale, CA, USA) was added as a mix of 90% Component A, 5% Component C, and 5% Component D, and incubated at room temperature for 5 min. Luminescent signal was measured on Viewlux uHTS Microplate Imager (PerkinElmer, Santa Clara, CA, USA). The data were processed using GraphPad Software (San Diego, CA, USA).

mouse RXFP1 = test: CRE-Luc BacMam luciferase assay, mouse RXFP1; format: cell-based; conditions: CRE-luc HEK293T, 2 h, highest concentrations of ML290 (range 57 μM–3.5 pM)
Procedure: as §3

macaque RXFP1 = test: CRE-Luc BacMam luciferase assay, macaque RXFP1; format: cell-based, rhesus macaque (Macaca mullata); design: key to Activation of RXFP1 receptors: *: Weak; **: intermediate; ***: strong activation of the receptor
Procedure: as §3

pig RXFP1 = test: CRE-Luc BacMam luciferase assay, pig RXFP1; format: cell-based, pig (Sus scrofa); design: key to Activation of RXFP1 receptors: *: Weak; **: intermediate; ***: strong activation of the receptor
Procedure: as §3

R1-RXFP1 and R2-RXFP1 = test: Direct HTRF cAMP assay, rabbit R1-RXFP1 and R2-RXFP1; format: cell-based, European rabbit (Oryctolagus cuniculus); design: key to Activation of RXFP1 receptors: *: Weak; **: intermediate; ***: strong activation of the receptor
Procedure: The human, mouse, macaque, and pig RXFP1 cDNA constructs in baculovirus BacMam mammalian expression vector (Invitrogen, Carlsbad, CA, USA) were synthesized at the Eukaryotic Expression Group-Protein Expression laboratory (NCI, Frederick, MD, USA). The PCR primers for RT-PCR were designed to cover the full-length sequence of the open reading frame (ORF). PCR amplifications were performed with PfuUltra High-Fidelity DNA polymerase (Agilent Technologies, Santa Clara, CA, USA). Guinea pig RXFP1 (G-RXFP1) was amplified from guinea pig ovarian cDNA (Zyagen, San Diego, CA, USA). Rabbit RXFP1 (R1-RXFP1 and R2-RXFP1) cDNAs were amplified from rabbit uterus cDNA (Zyagen). All cloning was performed using the In-Fusion® HD Cloning Kit (Clontech Laboratories, Mountain View, CA, USA). Rabbit and guinea pig RXFP1s were cloned into pCR3.1 mammalian expression vector (Invitrogen). In order to study RXFP1 surface expression, rabbit cDNAs were cloned into pcDNA3.1™/Zeo+ mammalian expression vector (Invitrogen), which contained an N-terminal FLAG-tag and a bovine prolactin signal sequence (3). […] To make chimeric clones, the human, guinea pig, and rabbit plasmid were used as templates to produce PCR amplicons, which were then used for overlapping PCR and subsequent cloning with the In-Fusion kit. The chimeric guinea pig/human GH-RXFP1 construct contains guinea pig RXFP1 cDNA (G-RXFP1, 1–1499 bp) encoding the ectodomain, TM1, TM2, and part of TM3 (amino acids 1–499 of G-RXFP1), and human RXFP1 (hRXFP1, 1509–2274 bp) encoding TM3 to the C-terminal tail of the receptor (amino acids 503–757 of hRXFP1) (Figure 1A). The recombinant chimeric human–rabbit HR-RXFP1 was made with the 5′-part of the hRXFP1 sequence (1–972 bp, LDLa-LRR9, 1–324 aa), with the remainder being the rabbit RXFP1 sequence (973–2277 bp, LRR9-C-terminal tail, 325–759 aa) (Figure 1A). The recombinant chimeric rabbit–human R1H-RXFP1 or R2H-RXFP1 contains the N-terminal rabbit RXFP1 sequence (1–972 bp for R1-RXFP1 or 975 bp for R2-RXFP1), with the remaining sequence being hRXFP1 (973–2274) (Figure 1A). R1- and R2-RXFP1 denote two variants of rabbit RXFP1 cDNA. All numbers correspond to the full-length cDNAs with the first nucleotide of the ORF.
(§4) HEK293T cell transient transfections were performed using Lipofectamine 2000 transfection reagent (Life Technologies, Grand Island, NY, USA) according to the manufacturer’s instructions. Cells transiently expressing the RXFP1 receptors were used within 48 h of transfection. Each construct was tested at least three times. For cell-conditioned media stimulation, HEK293T cells were transfected with the rabbit RLN construct (SQ10) or an empty pCR3.1 vector, and cells were cultured for 24 h. The media was used to stimulate HEK293T cells transfected with the RXFP1 receptors.
(§5) Direct measurement of cAMP production was performed using the HTRF cAMP HiRange kit (CisBio, Bedford, MA, USA). HEK293T cells transiently transfected with different RXFP1 receptors were stimulated with various concentrations of RLN peptides or ML290 for 60 min at 37°C, 5% CO2, after which, two HTRF detection reagents (diluted according to assay kit directions in HTRF lysis buffer) were added. The plates were incubated for 60 min at room temperature, and the signal was read on a FLUOstar Omega (BMG Labtech, Cary, NC, USA) plate reader. cAMP levels were calculated according to the manufacturer’s instructions against a standard curve. Statistical processing of the data was performed using GraphPad Prism software.

HR-RXFP1 = test: Direct HTRF cAMP assay, human/rabbit chimera HR-RXFP1; format: cell-based; conditions: transiently transfected HEK293T, % of hRXFP1 activation by 10 nM RLN
Procedure: as §1, §2

mouse RXFP1 receptor = conditions: direct cAMP HTRF assay, ref [5]; cited from earlier work
[1] = tested on: modified mouse receptor with humanized ECL3; conditions: ECL3 amino acids mutated, ref [5]; cited from earlier work
Source text: The rabbit and guinea pig receptors provide new structural templates for analysis of RLN and ML290 activation of RXFP1. […] Indeed, it was shown that primary binding of RLN to RXFP1 involve sites within LRR4, 5, 6, and 8 ([2]). In contrast, the 7TM region of RXFP1, which is the site of allosteric small-molecule agonist binding, is functional in rabbits. The opposite was true for guinea pig RXFP1: despite having the same ECL3 sequence as pig ...

GH-RXFP1 = test: Direct HTRF cAMP assay, guinea pig/human chimera GH-RXFP1; format: cell-based; design: key to Activation of RXFP1 receptors: *: Weak; **: intermediate; ***: strong activation of the receptor
Procedure: as §1, §2

G-RXFP1 = test: Direct HTRF cAMP assay, guinea pig G-RXFP1; format: cell-based, guinea pig (Cavia porcellus); conditions: conditioned media from SQ10-transfected HEK293T cells, % of 10 μM Forskolin
Procedure: as §1, §2

hRXFP1 = test: Direct HTRF cAMP assay, hRXFP1; format: cell-based, human; conditions: conditioned media from SQ10-transfected HEK293T cells, % of 10 μM Forskolin
Procedure: as §4, §5

CC(C)Oc1ccccc1C(=O)Nc1ccccc1C(=O)Nc1cccc(S(=O)(=O)C(F)(F)F)c1 [ML290]
cAMP response (ML290), CRE-β-gal (R1-RXFP1): comparable to hRXFP1
cAMP response (R1H-RXFP1 and R2H-RXFP1; R1H- and R2H-RXFP1, HTRF, transiently transfected HEK293T, % of hRXFP1 activation by 10 nM RLN): the level of activation of R1H- and R2H-RXFP1 was higher than that of R1-, R2-, or HR-RXFP1-transfected cells
Activation of RXFP1 receptors (R1H-RXFP1 and R2H-RXFP1; Rabbit 1(2)/human chimera, summary grade, HEK293T cells): **
Activation of RXFP1 receptors (human RXFP1; Human receptor, summary grade, HEK293T cells): ***
cAMP response (luciferase activity) (human RXFP1; human RXFP1, CRE-luc HEK293T, 2 h, ML290 57 μM–3.5 pM): responded strongly to ML290 stimulation
cAMP response (luciferase activity) (mouse RXFP1): significant increase in luciferase activity; also recorded: activation of the CRE-reporter was observed with high-dose ML290 treatment on the mouse receptor
Activation of RXFP1 receptors (macaque RXFP1; Macaque receptor, summary grade, HEK293T cells): ***
cAMP response (luciferase activity) (macaque RXFP1; macaque RXFP1, CRE-luc HEK293T, 2 h, ML290 57 μM–3.5 pM, RLN 8.7 μM–1.8 pM): responded to relaxin and ML290 treatment; also recorded: responded strongly to ML290 stimulation; also recorded: fully activated by RLN and ML290
Activation of RXFP1 receptors (pig RXFP1; Pig receptor, summary grade, HEK293T cells): ***
cAMP response (luciferase activity) (pig RXFP1; pig RXFP1, CRE-luc HEK293T, 2 h, ML290 57 μM–3.5 pM, RLN 8.7 μM–1.8 pM): responded to relaxin and ML290 treatment; also recorded: responded strongly to ML290 stimulation; also recorded: fully activated by RLN and ML290
cAMP response, FLAG-tagged receptors (R1-RXFP1 and R2-RXFP1; FLAG-tagged R1- and R2-RXFP1, HTRF, 60 min, % of hRXFP1 activation by 10 nM RLN): produced a cAMP increase in cells transfected with both rabbit receptors, albeit with lesser efficacy than hRXFP1
statistical significance of response versus hRXFP1 (R1-RXFP1 and R2-RXFP1; R1- and R2-RXFP1, 10 nM relaxin peptides or 5 μM ML290, HTRF): statistically significant compared to hRXFP1, ***p < 0.001
cAMP response to 5 μM ML290 (R1-RXFP1 and R2-RXFP1; R1- and R2-RXFP1, 5 μM ML290, HTRF, transiently transfected HEK293T): responded to 5 μM of ML290
cAMP response (R1-RXFP1 and R2-RXFP1; R1-RXFP1 and R2-RXFP1, transiently transfected HEK293T, data not shown): generated an increase in cAMP
Activation of RXFP1 receptors (R1-RXFP1 and R2-RXFP1; Rabbit 1 and 2, summary grade, HEK293T cells): **
activation of rabbit RXFP1 (summary) (R1-RXFP1 and R2-RXFP1; rabbit RXFP1 variants, cAMP production, abstract/discussion): activated by ML290
cAMP response (HR-RXFP1): all three receptors respond to ML290
activation of mouse RXFP1 (cAMP) (mouse RXFP1 receptor): does not activate the mouse receptor; also recorded: did not see an increase of cAMP; also recorded: no activation being seen in the direct HTRF cAMP assay; also recorded: did not activate the mouse RXFP1 receptor
activation of mouse receptor with humanized ECL3 [1]: activated by ML290
cAMP response (GH-RXFP1; GH-RXFP1, transiently transfected HEK293T, HTRF, 60 min at 37°C, % of 10 μM Forskolin response): only partially restored ML290 activation; also recorded: ML290 responsiveness, albeit to a much lower level than in hRXFP1 (p < 0.001); also recorded: efficacy of ML290 stimulation was improved, however, it was still lower than in hRXFP1-transfected cells
Activation of RXFP1 receptors (GH-RXFP1; Guinea pig/human chimera, summary grade, HEK293T cells): *

B1: SQ10: rabbit RLN expressed from SQ10 cDNA in HEK293T cells, used as conditioned medium (protein)
chain: RVTYEWMMENVKICRNDFVRTAIEVCGHVHLERESPSPENPFLSSGPAAETVPSSIKKDAENANTMLESIPNLPQELTATLFEKQPSKLYLQYLPTLKKSNVSFEEFKKIIQNIQRGVQGSSASESNTFSRKKRQFSESLPEECCKYGCPRYYLLMYC
cAMP response to SQ10 conditioned medium (R1-RXFP1 and R2-RXFP1; R1- or R2-RXFP1, conditioned media from SQ10-transfected HEK293T cells, HTRF, % of 10 μM Forskolin): No response was recorded; also recorded: Neither of the two rabbit RXFP1 variants responded
statistical significance of response versus hRXFP1 or G-RXFP1 (R1-RXFP1 and R2-RXFP1; R1-RXFP1, SQ10 conditioned media, HTRF): statistically significant (p < 0.0001) compared to hRXFP1 or G-RXFP1
cAMP response to SQ10 conditioned medium (G-RXFP1): responded to SQ10 treatment with cAMP production; also recorded: activated human and guinea pig receptors and thus was fully functional
cAMP response to SQ10 conditioned medium (hRXFP1): responded to SQ10 treatment with cAMP production; also recorded: activated human and guinea pig receptors and thus was fully functional
